In ChEMBL document CHEMBL3769311, “The natural flavone fukugetin as a mixed-type inhibitor for human tissue kallikreins” (Bioorg Med Chem Lett, 2016):

Key:
Kallikrein-1 [1] = biological target: T1, Kallikrein-1 (Homo sapiens, UniProt P06870); assay: Mixed-type inhibition of human tissue kallikrein-1 expressed in baculovirus infected insect cells using Abz-KLRSSQ-EDDnp as substrate preincubated for 10 mins followed by substrate addition by Lineweaver-Burk plot analysis
Kallikrein-1 [2] = biological target: T1, Kallikrein-1; assay: Inhibition of human tissue kallikrein-1 expressed in baculovirus infected insect cells using Abz-KLRSSQ-EDDnp as substrate preincubated for 10 mins followed by substrate addition by FRET assay
Kallikrein-2 [3] = biological target: T2, Kallikrein-2 (Homo sapiens, UniProt P20151); assay: Inhibition of human tissue kallikrein-2 expressed in baculovirus infected insect cells using Abz-KLRSSQ-EDDnp as substrate preincubated for 10 mins followed by substrate addition by FRET assay
T2 sequence (P20151 whole entry): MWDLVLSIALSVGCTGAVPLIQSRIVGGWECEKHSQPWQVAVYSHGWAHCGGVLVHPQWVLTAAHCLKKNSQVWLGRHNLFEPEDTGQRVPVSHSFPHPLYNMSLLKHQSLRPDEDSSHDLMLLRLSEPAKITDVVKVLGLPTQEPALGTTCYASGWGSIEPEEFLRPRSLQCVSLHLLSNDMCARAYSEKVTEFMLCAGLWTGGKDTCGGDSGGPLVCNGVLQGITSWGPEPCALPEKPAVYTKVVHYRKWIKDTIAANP

Kallikrein-2 [4] = biological target: T2, Kallikrein-2; assay: Mixed-type inhibition of human tissue kallikrein-2 expressed in baculovirus infected insect cells using Abz-KLRSSQ-EDDnp as substrate preincubated for 10 mins followed by substrate addition by Lineweaver-Burk plot analysis
Kallikrein-7 = Kallikrein-7 (Homo sapiens, UniProt P49862); assay: Inhibition of human tissue kallikrein-7 expressed in baculovirus infected insect cells using Abz-KLYSSQ-EDDnp as substrate preincubated for 10 mins followed by substrate addition by FRET assay
Chain of Kallikrein-7 (P49862 whole entry): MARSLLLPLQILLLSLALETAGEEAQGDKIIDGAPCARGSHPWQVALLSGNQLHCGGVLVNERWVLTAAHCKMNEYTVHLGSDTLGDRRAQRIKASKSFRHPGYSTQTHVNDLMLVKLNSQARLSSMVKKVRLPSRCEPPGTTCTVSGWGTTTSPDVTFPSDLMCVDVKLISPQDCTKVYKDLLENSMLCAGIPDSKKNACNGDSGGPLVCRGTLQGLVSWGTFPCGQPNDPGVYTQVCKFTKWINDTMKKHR

[5] = biological target: T3, Prostate-specific antigen (Homo sapiens, UniProt P07288); assay: Inhibition of human tissue kallikrein-3 expressed in baculovirus infected insect cells using Abz-KLYSSQ-EDDnp as substrate preincubated for 10 mins followed by substrate addition by FRET assay
T3 sequence (P07288 whole entry): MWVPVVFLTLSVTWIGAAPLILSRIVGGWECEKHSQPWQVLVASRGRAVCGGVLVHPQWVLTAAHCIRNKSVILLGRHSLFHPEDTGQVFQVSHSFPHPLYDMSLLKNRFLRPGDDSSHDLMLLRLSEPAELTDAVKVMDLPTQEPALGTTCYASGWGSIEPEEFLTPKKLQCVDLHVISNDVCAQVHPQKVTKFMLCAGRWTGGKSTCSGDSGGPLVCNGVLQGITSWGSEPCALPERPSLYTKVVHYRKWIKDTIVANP

Kallikrein-6 = Kallikrein-6 (Homo sapiens, UniProt Q92876); assay: Inhibition of human tissue kallikrein-6 expressed in baculovirus infected insect cells using Abz-KLRSSQ-EDDnp as substrate preincubated for 10 mins followed by substrate addition by FRET assay
Kallikrein-5 = biological target: T4, Kallikrein-5 (Homo sapiens, UniProt Q9Y337); assay: Inhibition of human tissue kallikrein-5 expressed in baculovirus infected insect cells using Abz-KLRSSQ-EDDnp as substrate preincubated for 10 mins followed by substrate addition by FRET assay
T4 sequence (Q9Y337 whole entry): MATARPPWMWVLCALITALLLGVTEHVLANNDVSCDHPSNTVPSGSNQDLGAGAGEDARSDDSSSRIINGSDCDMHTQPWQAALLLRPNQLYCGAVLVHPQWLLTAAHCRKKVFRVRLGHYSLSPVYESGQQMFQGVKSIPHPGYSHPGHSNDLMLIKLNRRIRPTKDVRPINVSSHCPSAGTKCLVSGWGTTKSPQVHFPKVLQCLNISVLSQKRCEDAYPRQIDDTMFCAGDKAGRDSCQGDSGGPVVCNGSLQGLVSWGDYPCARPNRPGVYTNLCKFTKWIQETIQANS

T1 sequence (P06870 whole entry): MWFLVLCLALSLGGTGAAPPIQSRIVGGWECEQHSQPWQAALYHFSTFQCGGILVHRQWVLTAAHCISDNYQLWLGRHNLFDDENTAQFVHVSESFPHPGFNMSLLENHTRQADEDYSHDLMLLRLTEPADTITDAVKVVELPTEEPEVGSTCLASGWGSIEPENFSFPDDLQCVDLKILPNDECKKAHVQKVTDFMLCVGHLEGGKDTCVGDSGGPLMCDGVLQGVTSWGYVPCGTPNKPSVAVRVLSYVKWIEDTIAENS

Ki (Kallikrein-1 [1]): 3.6 µM
IC50 (Kallikrein-1 [2]): 5.7 µM
IC50 (Kallikrein-2 [3]): 3.2 µM
Ki (Kallikrein-2 [4]): 1.6 µM
IC50 (Kallikrein-7): 15 µM
IC50 [5]: 13 µM
IC50 (Kallikrein-6): 13.5 µM
IC50 (Kallikrein-5): 12.5 µM
SMILES: O=C1CC(c2ccc(O)c(O)c2)Oc2c1c(O)cc(O)c2[C@@H]1C(=O)c2c(O)cc(O)cc2O[C@H]1c1ccc(O)cc1 (stereo partly drawn) [FUKUGETIN]
